From ChEMBL document CHEMBL5512615, “Targeting autophagy drug discovery: Targets, indications and development trends” (Eur J Med Chem, 2024)
Blank lines part the entries; values can stand above or below the compound they belong to. Where a SMILES comes first, the peptide text is derived from it. [ ]: non-standard residue; d: D form. pY = N[C@@H](Cc1ccc(OP(=O)(O)O)cc1)C(=O)O

Assays:
[1] = target: T1, Testis-expressed protein 264 (Homo sapiens, UniProt Q9Y6I9)
T1 sequence (Q9Y6I9 whole entry): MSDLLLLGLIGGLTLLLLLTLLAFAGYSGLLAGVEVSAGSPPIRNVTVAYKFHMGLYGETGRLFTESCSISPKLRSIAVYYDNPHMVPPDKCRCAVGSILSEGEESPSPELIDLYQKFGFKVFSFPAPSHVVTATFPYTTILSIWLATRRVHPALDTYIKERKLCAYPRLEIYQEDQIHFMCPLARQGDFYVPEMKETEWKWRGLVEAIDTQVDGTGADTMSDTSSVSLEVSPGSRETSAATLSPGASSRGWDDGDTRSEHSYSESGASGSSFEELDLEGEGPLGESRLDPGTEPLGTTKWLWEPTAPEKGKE
Description: Inhibition of TEX264 (unknown origin)

[2] = cells; conditions: Homo sapiens, NCI-H1975
Description: Inhibition of MAPK/ERK signaling pathway in human NCI-H1975 cells

[3] = target: Tubulin; conditions: k562
Description: Inhibition of microtubule polymerization in human K562 cells measured for 60 mins by fluorescence based analysis

[4] = target: T2, 5'-AMP-activated protein kinase catalytic subunit alpha-2 (Homo sapiens, UniProt P54646)
[5] = cells; conditions: Homo sapiens, HK-2, 6 h
Description: Downregulation of BNIP3 expression in human HK-2 cells incubated for 6 hrs by Western blot analysis

[6] = test system: HCT-116; experiment: cells; conditions: Homo sapiens, HCT-116, 24 h
Description: Induction of autophagy in human HCT-116 cells assessed as increase in p62 expression upto 5 uM incubated for 24 hrs by Western blot analysis

[7] = target: T2, 5'-AMP-activated protein kinase catalytic subunit alpha-2; remark: listed apart in the source
Description: Agonist activity at AMPK (unknown origin)

[8] = target: Phosphatidylinositol 3-kinase catalytic subunit type 3 (Homo sapiens, UniProt Q8NEB9)
Description: Inhibition of human PIK3C3 using PI as substrate by ADP-Glo assay

[9] = target: T3, Phosphatidylinositol 4,5-bisphosphate 3-kinase catalytic subunit alpha isoform (Homo sapiens, UniProt P42336)
Description: Inhibition of PI3Kalpha (unknown origin) by kinase profiling assay

[10] = target: T4, Translocator protein (Mus musculus, UniProt P50637); experiment: Binding affinity to mouse TSPO expressed in Escherichia coli assessed as inhibition constant
[11] = target: T5, Tumour suppressor protein p53/Mdm4 (Homo sapiens, UniProt O15151+P04637)
Description: Binding affinity to MDM4/p53 interaction (unknown origin) assessed as inhibition constant

[12] = target: T5, Tumour suppressor protein p53/Mdm4; remark: listed apart in the source
Description: Inhibition of MDM4/p53 (unknown origin)

[13] = cells; conditions: Homo sapiens, PC-3
Description: Inhibition of V-ATPase activity in lysosomes of human PC-3 cells

[14] = target: T2, 5'-AMP-activated protein kinase catalytic subunit alpha-2; remark: listed apart in the source
Description: Inhibition of AMPK signalling pathway in human HepG2 cells

[15] = target: Tumour suppressor p53/oncoprotein Mdm2 (Homo sapiens, UniProt P04637+Q00987)
Description: Inhibition of MDM2/p53 interaction (unknown origin)

[16] = target: T2, 5'-AMP-activated protein kinase catalytic subunit alpha-2; remark: listed apart in the source
Description: Binding affinity to AMPK (unknown origin) assessed as inhibition constant

[17] = target: T6, Cysteine protease ATG4B (Homo sapiens, UniProt Q9Y4P1)
T6 sequence (Q9Y4P1 whole entry): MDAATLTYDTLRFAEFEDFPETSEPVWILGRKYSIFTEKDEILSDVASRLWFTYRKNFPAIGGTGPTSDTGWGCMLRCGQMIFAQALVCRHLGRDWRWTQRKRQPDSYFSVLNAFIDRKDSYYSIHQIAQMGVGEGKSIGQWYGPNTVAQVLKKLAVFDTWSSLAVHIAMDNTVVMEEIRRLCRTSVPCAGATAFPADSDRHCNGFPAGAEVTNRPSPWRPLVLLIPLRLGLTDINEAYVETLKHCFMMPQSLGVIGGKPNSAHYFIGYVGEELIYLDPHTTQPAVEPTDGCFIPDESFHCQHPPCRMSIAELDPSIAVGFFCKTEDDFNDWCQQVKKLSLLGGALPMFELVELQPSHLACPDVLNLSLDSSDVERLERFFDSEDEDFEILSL
Description: Inhibition of ATG4B (unknown origin) using pim-FG-PABA-AMC as substrate by fluorescence based assay

[18] = test system: PC-12; experiment: cells; conditions: Rattus norvegicus
Description: Neuroprotective activity against rat PC12 cells assessed as decrease in H2O2-induced intracellular Ca2+ level preincubated for 12 hrs followed by H2O2-stimulation and measured after 12 hrs by Fluo-3 AM dye based flow cytometry

[19] = target: Serine/threonine-protein kinase mTOR (Homo sapiens, UniProt P42345)
Description: Inhibition of human mTORC1 incubated for 90 mins by Lanthascreen time-resolved FRET assay

[20] = target: Translocator protein (Rattus norvegicus, UniProt P16257)
[21] = target: T3, Phosphatidylinositol 4,5-bisphosphate 3-kinase catalytic subunit alpha isoform; remark: listed apart in the source
Description: Inhibition of PI3Kalpha (unknown origin)

[22] = target: T4, Translocator protein
[23] = target: T2, 5'-AMP-activated protein kinase catalytic subunit alpha-2; remark: listed apart in the source
Description: Inhibition of AMPK (unknown origin)

IC50 [1]: 10 nM
Structure (SMILES): O=C(Oc1cccc(/C=N/Nc2nc(Nc3ccccc3)nc(N3CCOCC3)n2)c1)c1ccco1

Structure (SMILES): CC[C@@H]1[C@@H](C)O[C@@](O)([C@@H](C)[C@H](O)[C@H](C)[C@H]2OC(=O)/C=C/C=C/[C@H](C)[C@@H]([C@@H](C)[C@@H](O)[C@H](C)[C@@]3(O)C[C@@H](O[C@H]4C[C@H](O)[C@H](O)[C@H](C)O4)[C@H](CC)[C@@H](C)O3)OC(=O)/C=C/C=C/[C@@H]2C)C[C@H]1O[C@H]1C[C@H](O)[C@H](O)[C@H](C)O1
IC50 [2]: 4.2 nM

IC50 [3]: 360 nM
Structure (SMILES): CCOC(=O)c1[nH]c(Br)c(-c2ccc(OC)c(OC)c2)c1Br

IC50 [4]: 108 nM
Structure (SMILES): CNC(=O)c1ccccc1Oc1nc(Nc2cc(OC)c(OC)c(OC)c2)ncc1Br

IC50 [5]: 2 nM
Structure (SMILES): Cc1ccc(NC(=O)NCc2ccc3c(c2)CN(C2CCC(=O)NC2=O)C3=O)cc1Cl (stereo unspecified)

IC50 [6]: 2500 nM
Structure (SMILES): CC(=O)N[C@@H](CC(C)C)C(=O)N[C@@H](CC(C)C)C(=O)N[C@H](C=O)CCCNC(=N)N

EC50 [7]: 800 nM
Structure (SMILES): N#CC1C(=O)Nc2scc(-c3ccc(-c4ccccc4O)cc3)c2C1=O (stereo unspecified)

IC50 [1]: 15 nM
Structure (SMILES): CN(Cc1ccccc1)S(=O)(=O)c1cc(C(=O)O)c(NCc2ccco2)cc1Cl

IC50 [2]: 5 nM
Structure (SMILES): CC(=O)O[C@H]1C(=O)[C@]2(C)[C@H](O)C[C@H]3OC[C@@]3(OC(C)=O)[C@H]2[C@H](OC(=O)c2ccccc2)[C@]2(O)C[C@H](OC(=O)[C@H](O)[C@@H](NC(=O)c3ccccc3)c3ccccc3)C(C)=C1C2(C)C

IC50 [8]: 14 nM
Structure (SMILES): C[C@@H]1COCCN1c1cc(N2CCCC[C@@H]2C(F)(F)F)[nH]c(=O)c1

IC50 [6]: 300 nM
Structure (SMILES): BrNc1nc(N/N=C\c2c[nH]c3ccccc23)nc(N2CCOCC2)n1

EC50 [7]: 300 nM
Structure (SMILES): OCc1c(C2CC2)nc2ccccc2c1-c1ccc(F)cc1

IC50 [9]: 30000 nM
Structure (SMILES): CC[C@H](C)[C@H](NC(=O)[C@H](CCCCN)NC(=O)[C@@H](NC(=O)[C@H](CCC(N)=O)NC(=O)[C@@H](N)CCCNC(=N)N)[C@@H](C)CC)C(=O)N[C@@H](Cc1c[nH]c2ccccc12)C(=O)N[C@@H](Cc1ccccc1)C(=O)N[C@@H](CCC(N)=O)C(=O)N[C@@H](CC(N)=O)C(=O)N[C@@H](CCCNC(=N)N)C(=O)N[C@@H](CCCNC(=N)N)C(=O)N[C@@H](CCSC)C(=O)N[C@@H](CCCCN)C(=O)N[C@@H](Cc1c[nH]c2ccccc12)C(=O)N[C@@H](CCCCN)C(=O)N[C@@H](CCCCN)C(=O)N[C@@H](CO)C(=O)N[C@@H](CC(=O)O)C(=O)NCC(=O)NCC(=O)N[C@@H](Cc1ccc(OP(=O)(O)O)cc1)C(=O)N[C@@H](CCSC)C(=O)N[C@@H](CC(=O)O)C(=O)N[C@@H](CCSC)C(=O)N[C@@H](CO)C(=O)O (H-RQIKIWFQNRRMKWKKSDGG[pY]MDMS-OH)

IC50 [2]: 2230 nM
Structure (SMILES): C=CC(C1=CC(=O)C(OC)=CC1=O)c1ccccc1 (stereo unspecified) [4-METHOXYDALBERGIONE]

Ki [10]: 0.4 nM
Structure (SMILES): CC[C@@H](C)N(C)C(=O)c1cc2ccccc2c(-c2ccccc2Cl)n1 [(R)PK-11195]

Ki [11]: 0.8 nM
Structure (SMILES): CN(C)CC[C@H](CSc1ccccc1)Nc1ccc(S(=O)(=O)NC(=O)c2ccc(N3CCN(Cc4ccccc4-c4ccc(Cl)cc4)CC3)cc2)cc1[N+](=O)[O-] [ABT 737]

IC50 [3]: 700 nM
Structure (SMILES): COc1ccc(S(=O)(=O)Nc2cccnc2Nc2ccc(O)cc2)cc1 [ABT-751]

EC50 [7]: 1.3 nM
Structure (SMILES): C[C@]12CCC(=O)C=C1CC[C@@H]1[C@@H]2[C@@H](O)C[C@]2(C=O)[C@@H](C(=O)CO)CC[C@@H]12 [ALDOSTERONE]

IC50 [12]: 11 nM
Structure (SMILES): C=CCS[S+]([O-])CC=C (stereo unspecified) [ALLICIN]

Structure (SMILES): CO/C1=C\C(C)=C\[C@@H](C)[C@@H](O)[C@@H](C)C/C(C)=C/C=C/[C@H](OC)[C@@H]([C@@H](C)[C@@H](O)[C@H](C)[C@@]2(O)C[C@@H](O)[C@H](C)[C@@H](C(C)C)O2)OC1=O [BAFILOMYCIN A1]
IC50 [13]: 0.06 nM

IC50 [14]: 12000 nM
Structure (SMILES): COc1ccc2cc3[n+](cc2c1OC)CCc1cc2c(cc1-3)OCO2 [BERBERINE]

Structure (SMILES): CC(C)=CCC/C(C)=C/Cc1c(O)cc2c(c1O)C(=O)C[C@@H](c1ccc(O)cc1)O2 [BONANNIONE A]
IC50 [15]: 3700 nM

IC50 [2]: 2100 nM
Structure (SMILES): C=C1C(=O)O[C@@H]2/C=C(\C)CC/C=C(\C)CC[C@@H]12 [COSTUNOLIDE]

Structure (SMILES): c1cc(-c2cnn3cc(-c4ccc(OCCN5CCCCC5)cc4)cnc23)ccn1 [DORSOMORPHIN]
Ki [16]: 109 nM

Structure (SMILES): O=c1c2ccccc2[se]n1-c1ccccc1 [EBSELEN]
IC50 [17]: 180 nM

Structure (SMILES): O=C(O[C@@H]1Cc2c(O)cc(O)cc2O[C@@H]1c1cc(O)c(O)c(O)c1)c1cc(O)c(O)c(O)c1 [EPIGALOCATECHIN GALLATE]
IC50 [18]: 30 nM

IC50 [19]: 150 nM
Structure (SMILES): CO[C@H]1C[C@@H]2CC[C@@H](C)[C@@](O)(O2)C(=O)C(=O)N2CCCC[C@H]2C(=O)O[C@H]([C@H](C)C[C@@H]2CC[C@@H](OCCO)[C@H](OC)C2)CC(=O)[C@H](C)/C=C(\C)[C@@H](O)[C@@H](OC)C(=O)[C@H](C)C[C@H](C)/C=C/C=C/C=C/1C [EVEROLIMUS]

IC50 [13]: 0.21 nM
Structure (SMILES): CCN(CCO)CCCC(C)Nc1ccnc2cc(Cl)ccc12 (stereo unspecified) [HYDROXYCHLOROQUINE]

IC50 [20]: 0.73 nM
Structure (SMILES): CC(C(O)c1ccc(O)cc1)N1CCC(Cc2ccccc2)CC1 (stereo unspecified) [IFENPRODIL]

IC50 [3]: 340 nM
Structure (SMILES): O=C1C[C@@H](c2ccc(O)cc2)Oc2cc(O)ccc21 [LIQUIRTIGENIN]

Structure (SMILES): COC(=O)C1=C(C)NC(C)=C(C(=O)OC)C1c1ccccc1[N+](=O)[O-] [NIFEDIPINE]
IC50 [20]: 0.5 nM

IC50 [20]: 300 nM
Structure (SMILES): COc1cc2c(cc1OC)-c1c(OC)c(OC)cc3ccnc(c13)C2=O [OXOGLAUCINE]

IC50 [8]: 5 nM
Structure (SMILES): Cc1[nH]c2ccccc2c1CCNCc1ccc(/C=C/C(=O)NO)cc1 [PANOBINOSTAT]

Structure (SMILES): COc1ccc2cc1Oc1ccc(cc1)C[C@@H]1c3cc(c(OC)cc3CCN1C)Oc1c(OC)c(OC)cc3c1[C@@H](C2)N(C)CC3 [PHAEANTHINE]
IC50 [15]: 179 nM

EC50 [7]: 5100 nM
Structure (SMILES): Oc1cc(O)c2c(c1)O[C@@]1(c3ccc(O)c(O)c3)Oc3cc(O)c4c(c3[C@@H]2[C@H]1O)O[C@H](c1ccc(O)c(O)c1)[C@@H](O)C4 [PROANTHOCYANIDIN A1]

Structure (SMILES): O=C(Nc1ccc(Oc2ccc(Cl)cc2)c(Cl)c1)c1cc(I)cc(I)c1O [RAFOXANIDE]
IC50 [21]: 13000 nM

IC50 [4]: 50000 nM
Structure (SMILES): Oc1ccc(/C=C/c2cc(O)cc(O)c2)cc1 [RESVERATROL]

IC50 [5]: 10 nM
Structure (SMILES): Cc1nc(C(=O)NCC(=O)O)c(O)c2ccc(Oc3ccccc3)cc12 [ROXADUSTAT]

IC50 [15]: 3200 nM
Structure (SMILES): COc1ccc(-c2cc(=O)c3c(OC)c(OC)c(OC)cc3o2)cc1OC [SINENSETIN]

IC50 [13]: 112000 nM
Structure (SMILES): NCCCCNCCCN [SPERMIDINE]

IC50 [2]: 5 nM
Structure (SMILES): Cn1nccc1Nc1nccc(-c2cc3c(s2)C(C)(C)N(CCN2CCOCC2)C3=O)n1 [TEMUTERKIB]

IC50 [22]: 1 nM
Structure (SMILES): CC(C)(C)c1ccc(C(O)CCCN2CCC(C(O)(c3ccccc3)c3ccccc3)CC2)cc1 (stereo unspecified) [TERFENADINE]

Structure (SMILES): Clc1ccc(C(Cn2ccnc2)OCc2ccsc2Cl)c(Cl)c1 (stereo unspecified) [TIOCONAZOLE]
IC50 [17]: 1300 nM

IC50 [23]: 506000 nM
Structure (SMILES): OC[C@H]1O[C@@H](Oc2ccc3c(c2)OC[C@H]2c4cc5c(cc4O[C@@H]32)OCO5)[C@H](O)[C@@H](O)[C@@H]1O [TRIFOLIRHIZIN]

IC50 [2]: 300 nM
Structure (SMILES): CC(C)Nc1cc(-c2c[nH]c(C(=O)N[C@H](CO)c3cccc(Cl)c3)c2)c(Cl)cn1 [ULIXERTINIB]

Structure (SMILES): C[C@H]1CCCC(=O)CCC/C=C/c2cc(O)cc(O)c2C(=O)O1 [ZEARALENONE]
IC50 [22]: 500 nM
